According to the Kinase Knowledgebase extract (Sharma et al. 2016):

How the values were obtained:
PIK3CB (Human) = PIK3CB (Human) (UniProt P42338); assay: Inhibition of PIK3CB Kinase Activity
PIK3CG (human) = PIK3CG (human) (UniProt P48736); assay: Inhibition of PIK3CG Kinase Activity
PIK3CD (Human) = PIK3CD (Human) (UniProt O00329); assay: Inhibition of PIK3CD Kinase Activity
PIK3CA (human) = PIK3CA (human) (UniProt P42336); assay: Inhibition of PIK3CA Kinase Activity
PIK3CA (human), sequence (P42336 whole entry, looked up): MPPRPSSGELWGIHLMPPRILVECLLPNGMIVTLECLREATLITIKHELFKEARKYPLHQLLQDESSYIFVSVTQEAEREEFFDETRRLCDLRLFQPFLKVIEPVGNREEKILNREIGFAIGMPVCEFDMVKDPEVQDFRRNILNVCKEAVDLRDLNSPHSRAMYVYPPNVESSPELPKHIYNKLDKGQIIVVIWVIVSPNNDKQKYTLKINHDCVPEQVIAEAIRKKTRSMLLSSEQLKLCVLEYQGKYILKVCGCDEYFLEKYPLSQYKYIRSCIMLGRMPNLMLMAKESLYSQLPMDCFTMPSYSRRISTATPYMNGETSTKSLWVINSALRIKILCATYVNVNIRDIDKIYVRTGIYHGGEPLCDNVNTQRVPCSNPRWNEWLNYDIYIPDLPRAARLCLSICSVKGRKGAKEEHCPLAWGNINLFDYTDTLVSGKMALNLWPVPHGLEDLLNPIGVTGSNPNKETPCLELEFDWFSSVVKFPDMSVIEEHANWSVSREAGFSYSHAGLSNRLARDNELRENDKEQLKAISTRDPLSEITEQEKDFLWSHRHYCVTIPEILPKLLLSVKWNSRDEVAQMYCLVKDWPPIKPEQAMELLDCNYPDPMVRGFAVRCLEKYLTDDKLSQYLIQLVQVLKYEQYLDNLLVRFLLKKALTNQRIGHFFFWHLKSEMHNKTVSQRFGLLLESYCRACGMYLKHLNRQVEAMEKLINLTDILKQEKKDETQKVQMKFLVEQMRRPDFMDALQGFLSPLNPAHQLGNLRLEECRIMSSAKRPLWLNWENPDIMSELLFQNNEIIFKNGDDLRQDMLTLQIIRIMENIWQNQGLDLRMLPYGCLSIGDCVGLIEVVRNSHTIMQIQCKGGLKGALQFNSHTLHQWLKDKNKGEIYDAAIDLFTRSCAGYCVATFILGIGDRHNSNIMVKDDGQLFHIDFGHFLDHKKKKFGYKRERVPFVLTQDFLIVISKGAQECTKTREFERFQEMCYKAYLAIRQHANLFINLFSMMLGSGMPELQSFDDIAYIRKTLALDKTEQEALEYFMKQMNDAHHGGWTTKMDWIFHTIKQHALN

PIK3CG (human), sequence (P48736 whole entry, looked up): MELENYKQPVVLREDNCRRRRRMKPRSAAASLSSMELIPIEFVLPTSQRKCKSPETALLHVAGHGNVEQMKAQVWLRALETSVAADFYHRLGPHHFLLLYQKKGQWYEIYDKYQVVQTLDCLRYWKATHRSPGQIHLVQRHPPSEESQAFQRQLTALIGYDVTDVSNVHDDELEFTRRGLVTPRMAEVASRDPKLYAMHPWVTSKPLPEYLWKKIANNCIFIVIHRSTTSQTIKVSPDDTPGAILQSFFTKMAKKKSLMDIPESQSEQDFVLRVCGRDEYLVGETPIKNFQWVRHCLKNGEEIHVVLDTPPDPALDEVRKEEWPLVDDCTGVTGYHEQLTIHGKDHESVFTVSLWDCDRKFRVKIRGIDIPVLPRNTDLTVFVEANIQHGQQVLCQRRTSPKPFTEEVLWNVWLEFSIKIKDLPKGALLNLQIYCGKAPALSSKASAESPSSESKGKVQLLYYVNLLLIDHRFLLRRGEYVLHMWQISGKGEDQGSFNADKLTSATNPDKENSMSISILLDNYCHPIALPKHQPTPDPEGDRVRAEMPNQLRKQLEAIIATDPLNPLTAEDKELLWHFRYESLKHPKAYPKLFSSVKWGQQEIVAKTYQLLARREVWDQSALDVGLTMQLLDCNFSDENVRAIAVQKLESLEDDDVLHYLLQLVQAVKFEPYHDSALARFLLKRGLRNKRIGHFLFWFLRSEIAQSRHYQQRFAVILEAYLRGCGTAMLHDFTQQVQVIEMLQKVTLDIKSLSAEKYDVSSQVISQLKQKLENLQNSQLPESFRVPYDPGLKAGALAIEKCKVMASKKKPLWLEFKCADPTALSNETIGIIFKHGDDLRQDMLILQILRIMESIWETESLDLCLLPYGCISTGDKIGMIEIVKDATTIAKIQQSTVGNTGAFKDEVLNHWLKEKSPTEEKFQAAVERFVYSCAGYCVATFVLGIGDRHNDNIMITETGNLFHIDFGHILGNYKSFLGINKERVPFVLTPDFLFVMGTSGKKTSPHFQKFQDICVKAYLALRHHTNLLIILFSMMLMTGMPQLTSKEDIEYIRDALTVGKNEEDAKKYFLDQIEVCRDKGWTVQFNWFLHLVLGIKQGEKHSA
PIK3CB (Human), sequence (P42338 whole entry, looked up): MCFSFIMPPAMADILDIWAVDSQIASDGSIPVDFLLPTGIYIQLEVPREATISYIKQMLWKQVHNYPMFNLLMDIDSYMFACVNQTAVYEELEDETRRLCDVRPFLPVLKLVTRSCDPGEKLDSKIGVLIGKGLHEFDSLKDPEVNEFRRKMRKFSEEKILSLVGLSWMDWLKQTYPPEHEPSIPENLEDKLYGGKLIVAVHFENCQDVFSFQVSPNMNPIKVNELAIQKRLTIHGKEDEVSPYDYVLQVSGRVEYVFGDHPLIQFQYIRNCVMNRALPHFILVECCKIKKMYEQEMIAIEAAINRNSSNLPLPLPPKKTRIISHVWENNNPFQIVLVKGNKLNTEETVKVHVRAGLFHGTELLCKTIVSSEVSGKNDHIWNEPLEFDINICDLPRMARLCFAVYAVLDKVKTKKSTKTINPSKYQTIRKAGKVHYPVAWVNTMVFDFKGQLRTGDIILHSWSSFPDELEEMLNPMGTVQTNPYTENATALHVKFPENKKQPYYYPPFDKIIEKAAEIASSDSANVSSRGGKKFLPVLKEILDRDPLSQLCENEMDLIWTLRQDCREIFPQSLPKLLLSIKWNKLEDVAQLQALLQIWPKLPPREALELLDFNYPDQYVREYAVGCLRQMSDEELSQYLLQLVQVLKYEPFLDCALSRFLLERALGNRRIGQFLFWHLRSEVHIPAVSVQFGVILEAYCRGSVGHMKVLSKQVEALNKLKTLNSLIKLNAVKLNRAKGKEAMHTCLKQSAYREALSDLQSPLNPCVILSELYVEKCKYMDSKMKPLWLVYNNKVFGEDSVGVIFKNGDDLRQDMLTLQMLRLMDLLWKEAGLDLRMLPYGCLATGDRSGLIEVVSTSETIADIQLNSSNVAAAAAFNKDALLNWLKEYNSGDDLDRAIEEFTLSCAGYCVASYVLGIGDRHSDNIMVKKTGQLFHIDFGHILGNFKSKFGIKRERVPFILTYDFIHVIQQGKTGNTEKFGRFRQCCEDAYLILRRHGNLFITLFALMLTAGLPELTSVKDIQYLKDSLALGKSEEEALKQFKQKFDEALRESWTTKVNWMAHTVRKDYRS
PIK3CD (Human), sequence (O00329 whole entry, looked up): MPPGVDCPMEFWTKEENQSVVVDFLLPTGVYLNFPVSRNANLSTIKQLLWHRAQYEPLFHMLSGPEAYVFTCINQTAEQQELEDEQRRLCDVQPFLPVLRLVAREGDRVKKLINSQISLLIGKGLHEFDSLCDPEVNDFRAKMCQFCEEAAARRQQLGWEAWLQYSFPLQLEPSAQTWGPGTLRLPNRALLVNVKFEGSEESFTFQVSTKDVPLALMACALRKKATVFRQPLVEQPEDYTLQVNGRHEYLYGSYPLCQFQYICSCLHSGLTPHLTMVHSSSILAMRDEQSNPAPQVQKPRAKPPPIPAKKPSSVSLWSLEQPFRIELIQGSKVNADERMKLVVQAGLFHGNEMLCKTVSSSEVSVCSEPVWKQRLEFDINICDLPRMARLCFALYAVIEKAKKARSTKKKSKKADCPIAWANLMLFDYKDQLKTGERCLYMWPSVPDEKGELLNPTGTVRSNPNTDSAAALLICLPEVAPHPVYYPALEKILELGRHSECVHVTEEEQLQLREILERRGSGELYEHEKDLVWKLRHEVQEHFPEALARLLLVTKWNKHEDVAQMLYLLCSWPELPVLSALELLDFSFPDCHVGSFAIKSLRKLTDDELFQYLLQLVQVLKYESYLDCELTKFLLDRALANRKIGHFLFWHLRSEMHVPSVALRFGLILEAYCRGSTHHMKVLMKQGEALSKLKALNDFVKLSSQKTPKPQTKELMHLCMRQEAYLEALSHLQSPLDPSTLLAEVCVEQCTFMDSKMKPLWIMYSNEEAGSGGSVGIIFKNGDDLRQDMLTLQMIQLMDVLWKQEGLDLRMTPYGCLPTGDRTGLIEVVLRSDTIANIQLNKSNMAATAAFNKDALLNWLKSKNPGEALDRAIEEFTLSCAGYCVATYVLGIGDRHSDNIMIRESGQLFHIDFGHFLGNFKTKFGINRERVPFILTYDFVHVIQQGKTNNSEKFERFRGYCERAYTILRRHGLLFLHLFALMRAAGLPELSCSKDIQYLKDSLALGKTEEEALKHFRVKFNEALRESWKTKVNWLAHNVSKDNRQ

Row | Compound | IC50 (PIK3CB (Human)) [nM] | IC50 (PIK3CG (human)) [nM] | IC50 (PIK3CD (Human)) [nM] | IC50 (PIK3CA (human)) [nM]
1 | CCCCNS(=O)(=O)c1cccc(-c2ccn3nc(N)nc3c2)c1 |  | 100 to 1000 |  | 
2 | Nc1nc2cc(-c3cncc(C(F)(F)F)c3)ccn2n1 |  | 100 to 1000 |  | 
3 | CS(=O)(=O)c1cccc(-c2ccn3nc(N)nc3c2)c1 |  | 100 to 1000 |  | 
4 | Nc1nc2cc(-c3cccnc3)ccn2n1 |  | 100 to 1000 |  | 
5 | CCCNS(=O)(=O)c1cncc(-c2ccn3nc(N)nc3c2)c1 |  | < 100 |  | 
6 | Nc1nc2cc(-c3cncc(S(=O)(=O)NCC(F)(F)F)c3)ccn2n1 |  | < 100 |  | 
7 | CC(C)(C)NS(=O)(=O)c1cncc(-c2ccn3nc(N)nc3c2)c1 | 100 to 1000 | < 100 | 100 to 1000 | 100 to 1000
8 | Nc1nc2cc(-c3cncc(S(=O)(=O)NCc4ccccc4)c3)ccn2n1 |  | < 100 |  | 
9 | Nc1nc2cc(-c3cncc(S(=O)(=O)Nc4ccccc4)c3)ccn2n1 |  | < 100 |  | 100 to 1000

Results, then the compound that gave them:

Row | IC50 (PIK3CB (Human)) [nM] | IC50 (PIK3CG (human)) [nM] | IC50 (PIK3CD (Human)) [nM] | IC50 (PIK3CA (human)) [nM] | Compound
10 | 100 to 1000 | < 100 | 100 to 1000 |  | CCN(CC)S(=O)(=O)c1cncc(-c2ccn3nc(N)nc3c2)c1
11 |  | < 100 |  |  | Nc1nc2cc(-c3cncc(S(=O)(=O)N4CCC4)c3)ccn2n1
12 |  | < 100 | 100 to 1000 | 100 to 1000 | CCN(C)S(=O)(=O)c1cncc(-c2ccn3nc(N)nc3c2)c1
13 | 100 to 1000 | < 100 | 100 to 1000 |  | CCNS(=O)(=O)c1cncc(-c2ccn3nc(N)nc3c2)c1
14 |  | < 100 | 100 to 1000 | 100 to 1000 | COc1ccc(-c2ccn3nc(N)nc3c2)cc1OC
15 | 100 to 1000 | < 100 | 100 to 1000 |  | CNS(=O)(=O)c1cncc(-c2ccn3nc(N)nc3c2)c1
16 | 100 to 1000 | < 100 |  |  | CC(C)(C)NS(=O)(=O)c1cncc(-c2cc(F)n3nc(N)nc3c2)c1
17 | 100 to 1000 | < 100 | 100 to 1000 |  | Nc1nc2cc(-c3cncc(S(N)(=O)=O)c3)ccn2n1
18 | 100 to 1000 | < 100 | 100 to 1000 |  | CC(C)NS(=O)(=O)c1cncc(-c2ccn3nc(N)nc3c2)c1
19 |  | < 100 |  |  | CS(=O)(=O)c1cncc(-c2ccn3nc(N)nc3c2)c1
20 | 100 to 1000 | < 100 | 100 to 1000 |  | CC(C)(NS(=O)(=O)c1cncc(-c2ccn3nc(N)nc3c2)c1)C(F)(F)F
21 | 100 to 1000 | < 100 | 100 to 1000 |  | Nc1nc2cc(-c3cncc(S(=O)(=O)NC4CC4)c3)ccn2n1
